Source: patent publication US10745397B2, “1-Substituted 1,2,3,4-tetrahydro-1,7-naphthyridin-8-amine derivatives and their use as EP4 receptor antagonists” (TAKEDA PHARMACEUTICAL COMPANY LIMITED, priority 2015, dated 2020)

Key:
[1] = target: T1, human EP4 receptor (Homo sapiens, UniProt P35408); assay: hEP4 radioligand binding assay ([3H] PGE2 competitive binding, membrane fractions); details: 300 nM compound; 1 nM [3H] PGE2
T1 construct: expressed in transfected cells; host or cells: FreeStyle293 (HEK293F) cells, transient transfection with pcDNA3.1(+), total membrane fraction
T1 sequence (P35408 whole entry): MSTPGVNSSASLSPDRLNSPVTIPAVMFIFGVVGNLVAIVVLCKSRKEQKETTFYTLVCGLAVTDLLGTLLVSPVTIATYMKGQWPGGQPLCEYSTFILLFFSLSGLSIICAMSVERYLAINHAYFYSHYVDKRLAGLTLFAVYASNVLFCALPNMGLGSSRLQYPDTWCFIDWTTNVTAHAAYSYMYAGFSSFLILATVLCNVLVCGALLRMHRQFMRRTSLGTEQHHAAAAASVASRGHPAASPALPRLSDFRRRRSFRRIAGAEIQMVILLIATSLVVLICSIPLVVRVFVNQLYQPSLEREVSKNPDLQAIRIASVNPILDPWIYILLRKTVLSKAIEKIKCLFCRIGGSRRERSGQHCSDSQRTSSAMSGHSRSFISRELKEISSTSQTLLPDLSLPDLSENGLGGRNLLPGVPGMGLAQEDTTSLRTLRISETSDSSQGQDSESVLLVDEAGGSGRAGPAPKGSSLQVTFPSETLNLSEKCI
Procedure, shortened: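 Membranes from FreeStyle293 (HEK293F) cells transiently expressing full-length human EP4; 10 μg protein incubated with compound and 1 nM [3H]PGE2 in 50 mM Tris-HCl pH 6.0, 10 mM MgCl2, 0.5 mM EDTA, 1% DMSO, 2 h at room temperature. Nonspecific binding with 10 μM unlabeled PGE2; filtration and scintillation counting; Ki by one-site fit.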

[2] = target: T2, hEP4 (C6 glioma cells overexpressing hEP4) (Homo sapiens, UniProt P35408); assay: hEP4 cell based assay (cAMP), inhibition of PGE2 induced cAMP, HTRF; details: 1 μM compound, PGE2 at EC80
T2 construct: host or cells: C6 glioma cells overexpressing hEP4
T2 sequence (P35408 whole entry): as above
Procedure, shortened: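 C6 glioma cells overexpressing hEP4 were pre-incubated 15 min with compound plus IBMX and Ro 20-1724 (each […]), then stimulated 30 min with PGE2 at EC80; 1% DMSO. cAMP was read by competitive HTRF (665/620 nm); IC50 came from non-linear regression, with agonist-only as 0% and no-agonist as 100% inhibition.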

[3] = system: Adjuvant Induced Arthritis (AIA) Model in Female Lewis Rats; assay: Suppression of arthritis development in adjuvant induced arthritis (AIA) model, arthritis score; type: in vivo, rat; details: PO; for % reduction in arthritis score: day 14 to day 23, compared to vehicle treatment at end of study period; for ED50: Rattus norvegicus, BID, female Lewis rats
Protocol: Adjuvant arthritis was induced on day 1 in female Lewis rats (10-12 weeks) by intradermal injection of heat killed Mycobacterium tuberculosis in complete freund's adjuvant (CFA) intradermally (Mycobacterium tuberculosis 100 mg in 5 mL incomplete freunds adjuvant, 200 μL per rat). Animals were randomized into different treatment groups, each group consist of 8 animals based on clinical scores on day 14. The animals in control group were given CFA and in second control group were administered with CFA and vehicle (1% Tween-80+0.5% CMC, quantity sufficient, 3 ml/kg, PO), where as animals in experimental groups were treated with CFA and EP4 antagonist (Example B2 and Example B4) in therapeutic fashion orally twice a day (BID) from day 14 to day 23 at 0.1, 0.3, 1, 3, 10 and 30 mg/kg doses.
Animals were evaluated for clinical symptoms and scored accordingly for inflamed paws and erythema. The scorer was blind to the treatment groups. Key findings for example B2 (Refer FIG. 1) and B4 (Refer FIG. 2) in rat arthritis model are as follows.

Structure (SMILES) | inhibition at 0.3 µM [1] | inhibition at 1 µM [2] | % reduction in arthritis score ([3]; 0.1 mg/kg BID) | % reduction in arthritis score ([3]; 0.3 mg/kg BID) | % reduction in arthritis score ([3]; 1 mg/kg BID) | % reduction in arthritis score ([3]; 3 mg/kg BID) | % reduction in arthritis score ([3]; 10 mg/kg BID) | % reduction in arthritis score ([3]; 30 mg/kg BID) | ED50 [3]
O=C(O)c1ccc(C2(Nc3nccc4c3N(Cc3ccc(F)c(F)c3)CCO4)CC2)cc1 [Example B4, 4-[1-[[4-[(3,4-Difluorophenyl)methyl]-2,3-dihydropyrido[4,3-b][1,4]oxazin-5-yl]amino]cyclopropyl]benzoic acid] | 83% | 97% | 3% | 4% | 27% | 39% | 51% | 55% | 8.8 mg/kg
C[C@H](Nc1nccc2c1N(Cc1cccc(Cl)c1)CCO2)c1ccc(C(=O)O)cc1 [Example B2, 4-[(1S)-1-[[4-[(3-Chlorophenyl)methyl]-2,3-dihydropyrido[4,3-b][1,4]oxazin-5-yl]amino]ethyl]benzoic acid] | 98% | 100% | 23% | 45% | 46% | 67% | 68% | 71% | 0.76 mg/kg
